Experimental data from ChEMBL document CHEMBL4033695, “Synthesis and biological evaluation of novel 5-aryl-4-(5-nitrofuran-2-yl)-pyrimidines as potential anti-bacterial agents” (Bioorg Med Chem Lett, 2017).
≈ marks a conversion by molar mass, not a printed value.

Tests used:
Klebsiella pneumoniae = assay: Antibacterial activity against Klebsiella pneumoniae ATCC 13883 by two-fold serial dilution method; assay type: functional
Pseudomonas aeruginosa = assay: Antibacterial activity against Pseudomonas aeruginosa ATCC 9027 by two-fold serial dilution method; assay type: functional
Proteus vulgaris = assay: Antibacterial activity against Proteus vulgaris RCPM 160125 (222) by two-fold serial dilution method; assay type: functional
Staphylococcus aureus [1] = assay: Potency index, ratio of spectinomycin MIC to compound MIC for Staphylococcus aureus ATCC 25923; assay type: functional
Citrobacter braakii = assay: Antibacterial activity against Citrobacter braakii ATCC 101/57 by two-fold serial dilution method; assay type: functional
Escherichia coli = assay: Antibacterial activity against Escherichia coli ATCC 8739 by two-fold serial dilution method; assay type: functional
Neisseria gonorrhoeae [2] = assay: Antibacterial activity against gonorrhea patient derived azithromycin resistant-Neisseria gonorrhoeae by two-fold serial dilution method; assay type: functional
Neisseria gonorrhoeae [3] = assay: Potency index, ratio of spectinomycin MIC to compound MIC for Neisseria gonorrhoeae NCTC 8375/ATCC 19424; assay type: functional
Staphylococcus aureus [4] = assay: Antibacterial activity against Staphylococcus aureus ATCC 25923 by two-fold serial dilution method; assay type: functional
[5] = Potency index, ratio of compound LD50 to isoniazid LD50 for mouse; assay type: ADME; conditions: in vivo
[6] = Cytotoxicity against mouse MacCoy B cells after 24 hrs by p-Nitro-Blue tetrazolium chloride dye based colorometric method; assay type: cell-based
Neisseria gonorrhoeae [7] = assay: Potency index, ratio of spectinomycin MIC to compound MIC for Neisseria gonorrhoeae NCTC 12700/ATCC 49226; assay type: functional
[8] = tested on: Mycobacterium tuberculosis; assay: Antitubercular activity against Mycobacterium tuberculosis H37Rv after […] by micro broth dilution method; assay type: functional
Neisseria gonorrhoeae [9] = assay: Antibacterial activity against Neisseria gonorrhoeae NCTC 12700/ATCC 49226 by two-fold serial dilution method; assay type: functional
Shigella flexneri = assay: Antibacterial activity against Shigella flexneri RCPM 1a8516 by two-fold serial dilution method; assay type: functional
Serratia marcescens = assay: Antibacterial activity against Serratia marcescens ATCC 13880 by two-fold serial dilution method; assay type: functional
[10] = Toxicity in mouse administered as single oral dose measured for 14 days; conditions: in vivo
Neisseria gonorrhoeae [11] = assay: Antibacterial activity against Neisseria gonorrhoeae NCTC 8375/ATCC 19424 by two-fold serial dilution method; assay type: functional
[12] = Toxicity in orally dosed mouse; assay type: organism-based; conditions: in vivo, po

Structure (SMILES) | MIC (Klebsiella pneumoniae) | MIC (Pseudomonas aeruginosa) | MIC (Proteus vulgaris) | Ratio (Staphylococcus aureus [1]) | MIC (Citrobacter braakii) | MIC (Escherichia coli) | MIC (Neisseria gonorrhoeae [2]) | Ratio (Neisseria gonorrhoeae [3]) | MIC (Staphylococcus aureus [4]) | selectivity ratio [5] | IC50 [6] | Ratio (Neisseria gonorrhoeae [7]) | MIC [8] | MIC (Neisseria gonorrhoeae [9]) | MIC (Shigella flexneri) | MIC (Serratia marcescens) | LD50 at 336 h [10] | MIC (Neisseria gonorrhoeae [11]) | LD50 [12]
O=[N+]([O-])c1ccc(-c2ncncc2Br)o1 | > 250 µg/mL | > 250 µg/mL | > 250 µg/mL | 4 | > 250 µg/mL | > 250 µg/mL | 3.9 µg/mL (≈ 14.4 µM) | <=16 | 7.8 µg/mL (≈ 28.9 µM) | 2 | 167 µM | <=16 | 1.5 µg/mL (≈ 5.55 µM) | 0.97 µg/mL (≈ 3.59 µM) | 7.8 µg/mL (≈ 28.9 µM) | > 250 µg/mL | 300 mg/kg | 7.8 µg/mL (≈ 28.9 µM) | –
O=[N+]([O-])c1ccc(-c2ncncc2-c2ccc(F)cc2F)o1 | > 500 µg/mL | > 500 µg/mL | > 250 µg/mL | 4 | > 500 µg/mL | > 500 µg/mL | 31.2 µg/mL (≈ 103 µM) | <=16 | 31.2 µg/mL (≈ 103 µM) | – | 66.8 µM | <=16 | 12.5 µg/mL (≈ 41.2 µM) | 3.9 µg/mL (≈ 12.9 µM) | > 250 µg/mL | > 500 µg/mL | – | 31.2 µg/mL (≈ 103 µM) | –
O=[N+]([O-])c1ccc(-c2ncncc2-c2ccc(C(F)(F)F)cc2C(F)(F)F)o1 | > 500 µg/mL | > 500 µg/mL | > 250 µg/mL | 4 | > 500 µg/mL | > 500 µg/mL | 1000 µg/mL (≈ 2480 µM) | <=16 | 15.6 µg/mL (≈ 38.7 µM) | – | 45.5 µM | <=16 | 12.5 µg/mL (≈ 31 µM) | 3.9 µg/mL (≈ 9.67 µM) | > 250 µg/mL | > 500 µg/mL | – | 1000 µg/mL (≈ 2480 µM) | –
O=[N+]([O-])c1ccc(-c2ncncc2-c2ccccc2)o1 | > 250 µg/mL | > 250 µg/mL | > 250 µg/mL | 4 | > 250 µg/mL | > 250 µg/mL | 7.8 µg/mL (≈ 29.2 µM) | <=16 | 15.6 µg/mL (≈ 58.4 µM) | 3 | 52.5 µM | <=16 | 3.1 µg/mL (≈ 11.6 µM) | 1.95 µg/mL (≈ 7.3 µM) | > 250 µg/mL | > 250 µg/mL | 450 mg/kg | 3.9 µg/mL (≈ 14.6 µM) | –
O=[N+]([O-])c1ccc(-c2ncncc2-c2ccc(F)cc2)o1 | – | – | – | 4 | – | – | 31.2 µg/mL (≈ 110 µM) | <=16 | 62.5 µg/mL (≈ 219 µM) | – | 69.8 µM | <=16 | 12.5 µg/mL (≈ 43.8 µM) | 31.2 µg/mL (≈ 110 µM) | – | – | – | 15.6 µg/mL (≈ 54.7 µM) | –
O=[N+]([O-])c1ccc(-c2ncncc2-c2cc(F)cc(F)c2)o1 | – | – | – | – | – | – | – | – | – | – | – | – | 12.5 µg/mL (≈ 41.2 µM) | – | – | – | – | > 1000 µg/mL | –
O=[N+]([O-])c1ccc(-c2ncncc2-c2ccccc2C(F)(F)F)o1 | > 250 µg/mL | > 250 µg/mL | > 250 µg/mL | 4 | > 250 µg/mL | > 250 µg/mL | 15.6 µg/mL (≈ 46.5 µM) | <=16 | 15.6 µg/mL (≈ 46.5 µM) | – | 74.4 µM | <=16 | 12.5 µg/mL (≈ 37.3 µM) | 3.9 µg/mL (≈ 11.6 µM) | 62.5 µg/mL (≈ 186 µM) | > 250 µg/mL | – | 15.6 µg/mL (≈ 46.5 µM) | –
O=[N+]([O-])c1ccc(-c2ncncc2-c2ccccc2F)o1 | > 250 µg/mL | > 250 µg/mL | > 250 µg/mL | 4 | > 250 µg/mL | > 250 µg/mL | 7.8 µg/mL (≈ 27.3 µM) | <=16 | 15.6 µg/mL (≈ 54.7 µM) | – | 67.5 µM | <=16 | 12.5 µg/mL (≈ 43.8 µM) | 1.95 µg/mL (≈ 6.84 µM) | > 250 µg/mL | > 250 µg/mL | – | 7.8 µg/mL (≈ 27.3 µM) | –
O=[N+]([O-])c1ccc(-c2ncncc2-c2cc(C(F)(F)F)cc(C(F)(F)F)c2)o1 | – | – | – | – | – | – | – | – | – | – | – | – | 12.5 µg/mL (≈ 31 µM) | – | – | – | – | > 1000 µg/mL | –
O=[N+]([O-])c1ccc(-c2ncncc2-c2ccc(C(F)(F)F)cc2)o1 | – | – | – | – | – | – | – | – | – | – | – | – | 12.5 µg/mL (≈ 37.3 µM) | – | – | – | – | 500 µg/mL (≈ 1490 µM) | –
O=[N+]([O-])c1ccc(-c2ncncc2-c2cccc(F)c2)o1 | > 250 µg/mL | > 250 µg/mL | > 250 µg/mL | 4 | > 250 µg/mL | > 250 µg/mL | 15.6 µg/mL (≈ 54.7 µM) | <=16 | > 250 µg/mL | – | 100 µM | <=16 | 12.5 µg/mL (≈ 43.8 µM) | 0.97 µg/mL (≈ 3.4 µM) | > 250 µg/mL | > 250 µg/mL | – | 3.9 µg/mL (≈ 13.7 µM) | –
O=[N+]([O-])c1ccc(-c2ncncc2-c2cccc(C(F)(F)F)c2)o1 | – | – | – | – | – | – | – | – | – | – | – | – | 12.5 µg/mL (≈ 37.3 µM) | – | – | – | – | 125 µg/mL (≈ 373 µM) | –
NNC(=O)c1ccncc1 [ISONIAZID] | – | – | – | – | – | – | – | – | – | – | – | – | 0.1 µg/mL (≈ 0.729 µM) | – | – | – | – | – | –
NC(=O)c1cnccn1 [PYRAZINAMIDE] | – | – | – | – | – | – | – | – | – | – | – | – | 12.5 µg/mL (≈ 102 µM) | – | – | – | – | – | –
CN[C@@H]1[C@H](O)[C@H](NC)[C@H]2O[C@@]3(O)C(=O)C[C@@H](C)O[C@H]3O[C@@H]2[C@H]1O [SPECTINOMYCIN] | 15.6 µg/mL (≈ 46.9 µM) | 250 µg/mL (≈ 752 µM) | 125 µg/mL (≈ 376 µM) | – | 31.2 µg/mL (≈ 94 µM) | 15.6 µg/mL (≈ 46.9 µM) | 15.6 µg/mL (≈ 46.9 µM) | – | 31.2 µg/mL (≈ 94 µM) | – | > 752 µM | – | – | 15.6 µg/mL (≈ 46.9 µM) | 7.8 µg/mL (≈ 23.5 µM) | 15.6 µg/mL (≈ 46.9 µM) | – | 15.6 µg/mL (≈ 46.9 µM) | > 10000 mg/kg
